{"source": "patent US7795226B2", "about": "“Control of radiation injury” (Biotempt B.V., priority 2006, dated 2010)", "key": {"[1]": {"tested_on": "high dose LPS (E. coli 026:B6)-induced septic shock in BALB/c mice", "assay": "high dose LPS-induced septic shock, peptide administered twice", "format": "in vivo", "conditions": "peptide twice (t = 2 and 24 hours) 5 mg/kg", "method": "Mice used in sepsis or septic shock experiments: Female BALB/c mice of eight to twelve weeks of age were used for all experiments. The animals were bred in our facility under specific pathogen-free conditions according to the protocols described in the […] of European Laboratory Animal Science Associations (FELASA) Working group on Animal Health (Laboratory Animals 28:1-24, 1994).\nInjection protocols: For the endotoxin model, BALB/c mice were injected i.p. with 150-300 μg LPS (E. coli 026:B6; Difco Lab., Detroit, Mich., USA). Control groups were treated with PBS i.p. only. To test the effect of peptides, they were dissolved in PBS and injected i.p. at predetermined points in time after LPS treatment.\nMice were scored for sickness severity using the following measurement scheme: • 0 No abnormalities. • 1 Percolated fur, but no detectable behavior differences compared to normal mice. • 2 Percolated fur, huddle reflex, responds to stimuli (such as tap on cage), just as active during handling as healthy mouse. • 3 Slower response to tap on cage, passive or docile when handled, but still curious when alone in a new setting. • 4 Lack of curiosity, little or no response to stimuli, quite immobile. • 5 Labored breathing, inability or slow to self-right after being rolled onto back (moribund, sacrificed). • D Dead.\nA second set of septic shock experiments were set up to determine which of the peptides LQG, LQGV (SEQ ID NO:117), VLPALP (SEQ ID NO:140), VLPALPQ (SEQ ID NO:143), MTR, MTRV (SEQ ID NO:119), VVC or AQG, AQGV (SEQ ID NO:120), LAG and LAGV (SEQ ID NO:121) were capable of inhibiting high dose LPS-induced septic shock in mice by treating mice with a double dose of peptide at two and 24 hours after LPS treatment. At each treatment, peptides were used at 5 mg/kg bodyweight. BALB/c mice were injected i.p. with high doses LPS (E. coli 026:B6; Difco Lab., Detroit, Mich. USA), predetermined to be leading to 80 to 100% mortality in 24 to 72 hours."}, "[2]": {"tested_on": "renal ischemia reperfusion in mice", "assay": "mouse renal ischemia reperfusion test", "format": "in vivo", "design": "BUN after 25 minutes renal ischemia, mean / Urea levels in dose-response experiment: unit not given here", "conditions": "for BUN concentration versus the PBS control group (in words) / mortality versus the PBS control group (in words) / BUN after 25 minutes renal ischemia, mean: 5 mg/kg i.v.; for mortality at 72 hours post-reperfusion: 5 mg/kg i.v. before and after 25 minutes clamping, dead/total", "method": "Six oligopeptides (i.e., A: LAGV (SEQ ID NO:121); B: AQGV (SEQ ID NO:120); C: LAG; D: AQG; E: MTR; and F: MTRV (SEO ID NO:119)) were tested and compared with PBS (control) in a double blind animal study for each peptide's relative ability to aid recovery in a mouse renal ischemia reperfusion test. In this test, the mice were anesthetized, and one kidney from each mouse was removed. The other kidney was tied off for 25 minutes, and the serum urea levels were allowed to increase. Both before and after tying off, each of the separate peptides was administered to thirty (30) different mice (5 mg oligopeptide / kg body mass intravenously), after which, the mortality of the mice was determined for each oligopeptide as well as was the BUN concentration at two hours, 24 hours and 72 hours. The results are shown in Table 3 below (excluding the results of peptide A (LAGV (SEQ ID NO:121)) obtained in Example 3).\nUnder inhalation anesthesia, the left kidney with its artery and vein was isolated and occluded for 25 minutes using a microvascular clamp. During surgery, animals were placed on a heating pad to maintain body temperature at 37° C. Five minutes before placing the clamp, and five minutes before releasing the clamp, 5 mg/kg of peptide dissolved in 0.1 mL of sterile saline, was administered intravenously. After reperfusion of the left kidney, the right kidney was removed. Kidney function was assessed by measuring blood urea nitrogen before clamping, and at 2, 24, and 72 hours after reperfusion.\nPeptides were tested at 0.3, 1, 3, 10 and 30 mg/kg dosages given as described in Example 3. P values (calculated by Mann Whitney U-test (SPSS for Windows)) of serum urea levels of PBS compared to peptide D groups at 72 hours post-clamping were at 0.3 mg/kg 0.001, at 1 mg/kg 0.009, at 3 mg/kg 0.02, at 10 mg/kg 0.000, and at 30 mg/kg 0.23; for peptide B (SEQ ID NO:120) groups, these P-values were 0.88, 0.054, 0.000, 0.001 and 0.003."}, "[3]": {"tested_on": "cell-cycle marker pCDG and auxin-responsive marker DR5::GUS", "assay": "Arabidopsis thaliana seedling cell-cycle analysis (GUS markers)", "conditions": "Results from Examples 9 and 10", "method": "To further study anti-cell-cycle activity of various oligopeptides, a proliferation experiment in Arabidopsis Thaliana seedlings was performed. The aim was to test a group of 140 oligopeptides of varying length for their effect on plant marker gene expression during rapid growth when avid cell division occurs.\nThe peptides were re-suspended in 1× Phosphate Buffer Saline (PBS) pH 8 to a final concentration of 5 mg/ml. The obtained solutions were then divided through 96-well round bottom plates (Corning Incorporated) at 40 microliters per well. Plates were stored before use at […] for four days. Seeds of Arabidopsis thaliana ecotype Ws-0 were surface sterilized in 2% commercial bleach (Gloria) for ten minutes and washed five times with sterile MQ water. The seeds were then re-suspended with 0.1% agar and plated on MS20 plates supplemented with 80 mg/l Kanamycin.\nThe plates were placed at […] for two nights and then transferred to a climate room at […] and a 16/8 hours photoperiod. After four days of growth, the seedlings were transferred to 96-well plates containing the peptide solutions (four seedlings per well) and incubated for four and eight hours.\nFor this experiment, Arabidopsis homozygous seedlings harboring two reporter genes fused to GUS were used. […] After incubation with the compounds, the seedlings were stained for GUS. The staining reaction was performed in 100 mM sodium phosphate buffer (pH 7.0) that contained 10 mM EDTA, 10% DMSO, 0.1% Triton X-100, 2 mM X-Gluc, 0.5 mM K3Fe(CN)6 and 0.5 mM K4Fe(CN)6 at […] for 16 hours. […] Seedlings were fixed and cleared in chloral hydrate solution for detailed microscopic observation and photography under a microscope equipped with DIC optics.\nPeptides were tested for an effect on marker gene expression on rapidly growing Arabidopsis young seedlings. This was monitored by changes on GUS distribution in different organs: root, root-hypocotyl transition zone and cotyledons."}}}
{"substance": "AQG", "values": [{"measurement": "mice with sickness score 1, effect at t = 24 hours", "setting": "[1]; LPS dose 10.5", "result": 2}, {"measurement": "mice with sickness score 1, effect at t = 48 hours", "setting": "[1]; LPS dose 10.5", "result": 2}, {"measurement": "mice with sickness score 2, effect at t = 24 hours", "setting": "[1]; LPS dose 10.5", "result": 1}, {"measurement": "mice with sickness score 2, effect at t = 48 hours", "setting": "[1]; LPS dose 10.5", "result": 3}, {"measurement": "mice with sickness score 3, effect at t = 24 hours", "setting": "[1]; LPS dose 10.5", "result": 2}, {"measurement": "mice with sickness score 1, effect at t = 24 hours", "setting": "[1]; LPS dose 11", "result": 4}, {"measurement": "mice with sickness score 2, effect at t = 48 hours", "setting": "[1]; LPS dose 11", "result": 6}, {"measurement": "mice with sickness score 3, effect at t = 24 hours", "setting": "[1]; LPS dose 11", "result": 2}, {"measurement": "Mortality in dose-response experiment", "setting": "[2]; 0.3 mg/kg, 24 hours", "result": "0-10"}, {"measurement": "Urea levels in dose-response experiment", "setting": "[2]; 0.3 mg/kg, 24 hours", "result": 38.4}, {"measurement": "Mortality in dose-response experiment", "setting": "[2]; 0.3 mg/kg, 72 hours", "result": "2-8"}, {"measurement": "Urea levels in dose-response experiment", "setting": "[2]; 0.3 mg/kg, 72 hours", "result": 30.4}, {"measurement": "Mortality in dose-response experiment", "setting": "[2]; 1.0 mg/kg, 24 hours", "result": "0-10"}, {"measurement": "Urea levels in dose-response experiment", "setting": "[2]; 1.0 mg/kg, 24 hours", "result": 48.4}, {"measurement": "Mortality in dose-response experiment", "setting": "[2]; 1.0 mg/kg, 72 hours", "result": "1-8"}, {"measurement": "Urea levels in dose-response experiment", "setting": "[2]; 1.0 mg/kg, 72 hours", "result": 38.4}, {"measurement": "Mortality in dose-response experiment", "setting": "[2]; 3.0 mg/kg, 24 hours", "result": "0-10"}, {"measurement": "Urea levels in dose-response experiment", "setting": "[2]; 3.0 mg/kg, 24 hours", "result": 39.3}, {"measurement": "Mortality in dose-response experiment", "setting": "[2]; 3.0 mg/kg, 72 hours", "result": "0-10"}, {"measurement": "Urea levels in dose-response experiment", "setting": "[2]; 3.0 mg/kg, 72 hours", "result": 40.3}, {"measurement": "BUN concentration versus the PBS control group (in words)", "setting": "[2]", "result": "no reducing effect on BUN concentration"}, {"measurement": "mortality versus the PBS control group (in words)", "setting": "[2]", "result": "significant reduction of mortality"}, {"measurement": "mortality at 72 hours post-reperfusion", "setting": "[2]", "result": "4/10"}, {"measurement": "Mortality in dose-response experiment", "setting": "[2]; 10.0 mg/kg, 24 hours", "result": "0-8"}, {"measurement": "Urea levels in dose-response experiment", "setting": "[2]; 10.0 mg/kg, 24 hours", "result": 46.8}, {"measurement": "Mortality in dose-response experiment", "setting": "[2]; 10.0 mg/kg, 72 hours", "result": "1-10"}, {"measurement": "Urea levels in dose-response experiment", "setting": "[2]; 10.0 mg/kg, 72 hours", "result": 25.8}, {"measurement": "Mortality in dose-response experiment", "setting": "[2]; 30.0 mg/kg, 24 hours", "result": "0-8"}, {"measurement": "Urea levels in dose-response experiment", "setting": "[2]; 30.0 mg/kg, 24 hours", "result": 52.8}, {"measurement": "Mortality in dose-response experiment", "setting": "[2]; 30.0 mg/kg, 72 hours", "result": "1-8"}, {"measurement": "Urea levels in dose-response experiment", "setting": "[2]; 30.0 mg/kg, 72 hours", "result": 58.9}, {"measurement": "BUN after 25 minutes renal ischemia, mean", "setting": "[2]; 2 hours after reperfusion", "result": 17.7}, {"measurement": "BUN after 25 minutes renal ischemia, mean", "setting": "[2]; 24 hours after reperfusion", "result": 66.76}, {"measurement": "BUN after 25 minutes renal ischemia, mean", "setting": "[2]; 72 hours after reperfusion", "result": 91.18}, {"measurement": "BUN levels in dose-response experiment (in words)", "setting": "[2]; lower dosages tested (0.3-30 mg/kg range), compared with peptide B", "result": "did reduce BUN levels surprisingly well at the lower dosages tested"}, {"measurement": "BUN after 25 minutes renal ischemia, mean", "setting": "[2]; t = 0 hr (before clamping)", "result": 9.304}, {"measurement": "identified as useful peptide for treatment of radiation injury from cell-cycle studies in plants and in vitro proliferation studies", "setting": "[3]", "result": "useful"}]}
{"substance": "LAG", "values": [{"measurement": "mice scored D (dead), effect at t = 48 hours", "setting": "[1]; LPS dose 10.5", "result": 6}, {"measurement": "mice with sickness score 5, effect at t = 24 hours", "setting": "[1]; LPS dose 10.5", "result": 5}, {"measurement": "mice scored D (dead), effect at t = 48 hours", "setting": "[1]; LPS dose 11", "result": 6}, {"measurement": "mice with sickness score 5, effect at t = 24 hours", "setting": "[1]; LPS dose 11", "result": 6}, {"measurement": "BUN concentration versus the PBS control group (in words)", "setting": "[2]", "result": "no reducing effect on BUN concentration"}, {"measurement": "mortality versus the PBS control group (in words)", "setting": "[2]", "result": "significant reduction of mortality"}, {"measurement": "mortality at 72 hours post-reperfusion", "setting": "[2]", "result": "4/10"}, {"measurement": "BUN after 25 minutes renal ischemia, mean", "setting": "[2]; 2 hours after reperfusion", "result": 18.13}, {"measurement": "BUN after 25 minutes renal ischemia, mean", "setting": "[2]; 24 hours after reperfusion", "result": 59.24}, {"measurement": "BUN after 25 minutes renal ischemia, mean", "setting": "[2]; 72 hours after reperfusion", "result": 74.4}, {"measurement": "BUN after 25 minutes renal ischemia, mean", "setting": "[2]; t = 0 hr (before clamping)", "result": 10.15}, {"measurement": "identified as useful peptide for treatment of radiation injury from cell-cycle studies in plants and in vitro proliferation studies", "setting": "[3]", "result": "useful"}]}
